From ChEMBL document CHEMBL5465560, “Selectivity Literature for EUbOPEN Chemogenomic Library” (2024) come the findings set out here.

Assay [1] addresses T1, Cyclin-dependent kinase-like 5 (Homo sapiens) (UniProt O76039).
T1 sequence (whole entry): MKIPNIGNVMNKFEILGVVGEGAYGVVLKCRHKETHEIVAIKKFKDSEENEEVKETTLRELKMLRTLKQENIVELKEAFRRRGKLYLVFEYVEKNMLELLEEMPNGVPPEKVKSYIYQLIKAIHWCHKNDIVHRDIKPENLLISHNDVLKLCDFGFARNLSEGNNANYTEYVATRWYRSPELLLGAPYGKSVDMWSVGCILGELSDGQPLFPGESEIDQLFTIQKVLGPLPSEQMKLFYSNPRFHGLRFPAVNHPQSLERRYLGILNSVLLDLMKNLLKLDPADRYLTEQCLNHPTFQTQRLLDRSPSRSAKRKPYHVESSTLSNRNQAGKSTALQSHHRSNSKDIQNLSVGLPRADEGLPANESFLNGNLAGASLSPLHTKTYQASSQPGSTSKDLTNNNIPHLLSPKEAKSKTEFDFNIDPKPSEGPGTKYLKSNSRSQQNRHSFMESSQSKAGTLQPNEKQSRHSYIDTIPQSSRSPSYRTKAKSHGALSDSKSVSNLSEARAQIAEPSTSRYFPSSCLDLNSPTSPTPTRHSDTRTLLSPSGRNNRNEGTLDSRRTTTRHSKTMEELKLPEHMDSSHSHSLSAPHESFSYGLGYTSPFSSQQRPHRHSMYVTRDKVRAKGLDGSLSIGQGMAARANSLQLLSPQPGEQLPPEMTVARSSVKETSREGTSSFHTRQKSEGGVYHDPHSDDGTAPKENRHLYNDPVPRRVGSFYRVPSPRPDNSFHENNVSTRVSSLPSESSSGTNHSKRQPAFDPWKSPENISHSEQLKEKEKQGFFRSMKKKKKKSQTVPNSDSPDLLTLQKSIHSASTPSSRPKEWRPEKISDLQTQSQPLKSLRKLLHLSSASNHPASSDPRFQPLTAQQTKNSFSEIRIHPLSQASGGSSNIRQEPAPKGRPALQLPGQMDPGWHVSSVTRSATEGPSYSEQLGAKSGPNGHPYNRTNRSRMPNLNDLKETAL
As to the kind of experiment: Selectivity interaction (KinomeScan (DiscoverX)) EUB0001079a CDKL5. As to conditions: at 1 µM.

In assay [2] the target is T2, Tyrosine-protein kinase TXK (Homo sapiens) (UniProt P42681).
T2 sequence (whole entry): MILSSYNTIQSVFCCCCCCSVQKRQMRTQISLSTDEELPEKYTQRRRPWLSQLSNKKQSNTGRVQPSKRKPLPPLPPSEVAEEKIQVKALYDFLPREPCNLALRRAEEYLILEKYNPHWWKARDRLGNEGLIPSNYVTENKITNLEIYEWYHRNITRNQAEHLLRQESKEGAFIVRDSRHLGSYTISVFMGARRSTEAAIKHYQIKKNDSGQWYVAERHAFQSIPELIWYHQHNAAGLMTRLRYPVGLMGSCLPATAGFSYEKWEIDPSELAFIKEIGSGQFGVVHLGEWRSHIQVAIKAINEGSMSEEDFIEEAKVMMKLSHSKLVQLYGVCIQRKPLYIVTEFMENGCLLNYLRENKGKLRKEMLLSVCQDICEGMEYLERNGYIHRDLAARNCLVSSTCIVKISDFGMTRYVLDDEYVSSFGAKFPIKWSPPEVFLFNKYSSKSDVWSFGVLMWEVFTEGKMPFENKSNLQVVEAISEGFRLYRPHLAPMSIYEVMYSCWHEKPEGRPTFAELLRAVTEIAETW
As to the kind of experiment: Selectivity interaction (KinomeScan (DiscoverX)) EUB0001079a TXK. As to conditions: at 1 µM.

Assay [3] addresses T3, Mitogen-activated protein kinase kinase kinase 3 (Homo sapiens) (UniProt Q99759).
T3 sequence (whole entry): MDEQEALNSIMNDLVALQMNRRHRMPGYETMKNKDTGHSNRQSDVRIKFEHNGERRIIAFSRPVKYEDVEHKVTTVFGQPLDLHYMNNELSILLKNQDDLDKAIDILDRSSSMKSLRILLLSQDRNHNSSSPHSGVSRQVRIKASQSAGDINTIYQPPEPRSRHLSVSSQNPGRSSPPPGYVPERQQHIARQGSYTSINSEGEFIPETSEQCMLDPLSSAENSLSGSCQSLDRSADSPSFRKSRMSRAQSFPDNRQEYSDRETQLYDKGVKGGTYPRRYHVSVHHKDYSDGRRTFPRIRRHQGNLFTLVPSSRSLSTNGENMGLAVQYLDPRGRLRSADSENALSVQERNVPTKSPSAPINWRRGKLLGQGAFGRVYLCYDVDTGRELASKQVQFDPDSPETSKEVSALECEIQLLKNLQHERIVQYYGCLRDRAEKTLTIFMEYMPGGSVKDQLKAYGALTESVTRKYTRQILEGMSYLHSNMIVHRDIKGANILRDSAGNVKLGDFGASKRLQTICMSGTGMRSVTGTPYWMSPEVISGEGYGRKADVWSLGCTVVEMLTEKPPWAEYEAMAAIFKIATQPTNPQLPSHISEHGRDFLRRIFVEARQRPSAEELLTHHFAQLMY
As to the kind of experiment: Selectivity interaction (KinomeScan (DiscoverX)) EUB0000092b MAP3K3. Particulars: at 10 µM.

For assay [4], the target named is Protein kinase C eta type (Homo sapiens) (UniProt P24723). The assay can be described thus: Selectivity interaction (KinomeScan (DiscoverX)) EUB0000092b PRKCH. Particulars: at 10 µM.
The target in another assay is D(1A) dopamine receptor (Homo sapiens, UniProt P21728). The assay can be described thus: Selectivity interaction (Eurofins CEREP Diversity Profile (receptors and ion channels)) EUB0000279b DRD1. As to conditions: at 10 µM.
The next assay has as its target SRSF protein kinase 1 (Homo sapiens, UniProt Q96SB4). The assay can be described thus: Selectivity interaction (Kinase panel (Invitrogen)) EUB0000639a SRPK1. As to conditions: at 200 nM.
The target of assay [5] is 5'-AMP-activated protein kinase catalytic subunit alpha-2 (Homo sapiens) (UniProt P54646). The assay can be described thus: Selectivity interaction (KinomeScan (DiscoverX)) EUB0000618a PRKAA2. Particulars: at 10 µM.
Sequence of 5'-AMP-activated protein kinase catalytic subunit alpha-2 (Homo sapiens) (P54646 whole entry, looked up): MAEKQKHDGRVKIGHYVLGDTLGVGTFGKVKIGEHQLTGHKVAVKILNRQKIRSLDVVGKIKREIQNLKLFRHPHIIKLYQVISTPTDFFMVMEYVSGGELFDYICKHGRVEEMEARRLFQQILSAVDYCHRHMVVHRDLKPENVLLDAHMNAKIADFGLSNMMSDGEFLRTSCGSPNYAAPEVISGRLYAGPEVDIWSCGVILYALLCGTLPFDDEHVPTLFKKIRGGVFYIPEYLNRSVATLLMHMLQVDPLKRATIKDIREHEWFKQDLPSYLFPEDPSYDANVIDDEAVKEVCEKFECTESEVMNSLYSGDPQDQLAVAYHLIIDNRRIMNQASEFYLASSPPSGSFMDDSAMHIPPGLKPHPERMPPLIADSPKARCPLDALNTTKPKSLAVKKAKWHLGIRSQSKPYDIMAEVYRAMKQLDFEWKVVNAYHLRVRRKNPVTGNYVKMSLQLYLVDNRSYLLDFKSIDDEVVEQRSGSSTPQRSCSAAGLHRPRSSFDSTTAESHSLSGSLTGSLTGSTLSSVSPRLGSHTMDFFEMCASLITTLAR

Sequence of Protein kinase C eta type (Homo sapiens) (P24723 whole entry): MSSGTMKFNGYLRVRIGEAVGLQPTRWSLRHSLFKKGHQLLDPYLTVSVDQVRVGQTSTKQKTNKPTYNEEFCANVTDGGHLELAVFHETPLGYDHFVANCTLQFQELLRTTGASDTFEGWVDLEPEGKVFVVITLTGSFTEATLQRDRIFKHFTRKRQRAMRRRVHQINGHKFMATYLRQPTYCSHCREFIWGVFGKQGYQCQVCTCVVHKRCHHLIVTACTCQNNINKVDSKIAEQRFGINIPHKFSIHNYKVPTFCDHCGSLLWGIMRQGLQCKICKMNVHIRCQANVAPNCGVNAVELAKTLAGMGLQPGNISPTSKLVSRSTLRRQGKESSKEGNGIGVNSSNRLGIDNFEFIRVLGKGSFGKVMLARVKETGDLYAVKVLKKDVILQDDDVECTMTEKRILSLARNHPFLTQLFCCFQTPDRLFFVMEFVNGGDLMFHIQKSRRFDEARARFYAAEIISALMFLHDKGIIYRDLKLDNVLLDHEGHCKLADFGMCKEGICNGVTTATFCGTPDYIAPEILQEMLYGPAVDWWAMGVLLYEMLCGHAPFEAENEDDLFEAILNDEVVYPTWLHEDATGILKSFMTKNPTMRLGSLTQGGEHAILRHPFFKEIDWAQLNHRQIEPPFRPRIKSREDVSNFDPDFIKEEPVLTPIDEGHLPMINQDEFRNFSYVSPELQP
Sequence of D(1A) dopamine receptor (P21728 whole entry): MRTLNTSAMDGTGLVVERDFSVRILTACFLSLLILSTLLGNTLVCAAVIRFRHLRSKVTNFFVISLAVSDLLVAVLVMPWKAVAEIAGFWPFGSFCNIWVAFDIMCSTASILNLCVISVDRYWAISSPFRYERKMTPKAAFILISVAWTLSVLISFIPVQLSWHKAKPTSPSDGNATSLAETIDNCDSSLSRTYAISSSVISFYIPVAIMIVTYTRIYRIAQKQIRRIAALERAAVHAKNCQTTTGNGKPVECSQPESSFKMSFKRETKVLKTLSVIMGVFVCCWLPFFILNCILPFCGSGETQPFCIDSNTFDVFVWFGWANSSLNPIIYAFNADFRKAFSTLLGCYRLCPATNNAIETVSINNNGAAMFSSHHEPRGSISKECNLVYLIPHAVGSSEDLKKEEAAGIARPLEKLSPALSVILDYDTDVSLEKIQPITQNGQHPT
Sequence of SRSF protein kinase 1 (Q96SB4 whole entry): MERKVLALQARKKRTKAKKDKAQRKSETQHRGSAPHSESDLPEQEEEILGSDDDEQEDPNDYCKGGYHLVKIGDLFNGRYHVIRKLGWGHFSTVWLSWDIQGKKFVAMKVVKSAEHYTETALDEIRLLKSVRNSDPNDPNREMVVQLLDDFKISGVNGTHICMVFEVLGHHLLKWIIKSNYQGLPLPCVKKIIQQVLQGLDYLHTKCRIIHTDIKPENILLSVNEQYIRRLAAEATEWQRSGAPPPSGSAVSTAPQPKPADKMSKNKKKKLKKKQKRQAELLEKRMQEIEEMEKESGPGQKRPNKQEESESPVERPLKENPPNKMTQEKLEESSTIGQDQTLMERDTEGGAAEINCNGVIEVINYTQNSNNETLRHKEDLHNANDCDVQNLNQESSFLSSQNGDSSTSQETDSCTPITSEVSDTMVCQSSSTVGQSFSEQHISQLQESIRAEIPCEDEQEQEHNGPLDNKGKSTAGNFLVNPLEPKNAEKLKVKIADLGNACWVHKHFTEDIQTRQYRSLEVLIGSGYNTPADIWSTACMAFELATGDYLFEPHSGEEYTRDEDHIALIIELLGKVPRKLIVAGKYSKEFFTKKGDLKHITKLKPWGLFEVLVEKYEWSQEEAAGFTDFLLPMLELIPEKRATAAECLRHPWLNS

For the compound `Nc1cnc(N2CCc3cc(S(=O)(=O)Nc4c(F)cc(Cl)cc4F)cc(N4CCCC4=O)c32)nc1` [TP-020n], the % of control in assay [1] was 88%; in assay [2], 83%.

Regarding `CCC(=O)N1CCN(c2ccc(-n3c(=O)ccc4cnc5ccc(-c6cnc7ccccc7c6)cc5c43)cc2C(F)(F)F)CC1`, the % of control in assay [3] was determined as 75%; in assay [4] it was 92%.

`CC(=O)c1cc(-c2ccccc2OCC2CC2)c2ncccn12` returned a % of control on D(1A) dopamine receptor of 90%.

With `CC[C@@H]1[C@H](F)C(=O)N[C@@H]1COc1nccc2cc(C(N)=O)c(OC)cc12` [ZIMLOVISERTIB], the % of inhibition at SRSF protein kinase 1 was found to be 0.109%.

In assay [5], `O[C@H]1CC[C@H](Nc2ncc3nc(Nc4c(F)cc(F)cc4F)n([C@H]4CCOC4)c3n2)CC1` registered a % of control of 100%.
